Data published in patent publication US6664411B2, “Heterocyclic compounds and their use in medicine; process for their preparation and pharmaceutical compositions containing them” (Dr. Reddy's Laboratories Limited, priority 1997, dated 2003).

Experiments:
hPPARγ1 = target: T1, hPPARγ1 (Homo sapiens, UniProt P37231); assay: Determination of hPPARγ activity (GAL4 fusion luciferase reporter, HEK-293 cells); format: cell-based; conditions: Concentration 1 μM
T1 construct: expressed in transfected cells; host or cells: HEK-293
T1 sequence (P37231 238-503 limits assumed): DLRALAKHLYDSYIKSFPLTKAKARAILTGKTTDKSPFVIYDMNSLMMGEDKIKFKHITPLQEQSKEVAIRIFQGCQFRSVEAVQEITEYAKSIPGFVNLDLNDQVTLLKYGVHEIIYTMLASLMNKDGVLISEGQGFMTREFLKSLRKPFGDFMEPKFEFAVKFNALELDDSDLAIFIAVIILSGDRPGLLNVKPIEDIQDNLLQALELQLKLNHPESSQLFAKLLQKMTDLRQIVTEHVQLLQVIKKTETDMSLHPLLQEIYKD
Experimental: Ligand binding domain of hPPARγ1 was fused to DNA binding domain of Yeast transcription factor GAL4 in eucaryotic expression vector. Using lipofectamine (Gibco BRL, USA) as transfecting reagent HEK-293 cells were transfected with this plasmid and a reporter plasmid harboring the luciferase gene driven by a GAL4 specific promoter. Compound was added at 1 μM concentration after 48 hrs of transfection and incubated overnight. Luciferase activity as a function of drug binding/activation capacity of PPARγ was measured using Packard Luclite kit (Packard, USA) in Packard Top Count (Ivan Sadowski, Brendan Bell, Peter Broag and Melvyn Hollis. Gene. 1992. 118:137-141; Guide to Eukaryotic Transfections with Cationic Lipid Reagents. Life Technologies, GIBCO BRL, USA).

hPPARα = target: T2, hPPARα (Homo sapiens, UniProt Q07869); assay: Determination of hPPARα activity (GAL4 fusion luciferase reporter, HEK-293 cells); format: cell-based; conditions: Concentration 50 μM
T2 construct: expressed in transfected cells; host or cells: HEK-293
T2 sequence (Q07869 239-466 limits assumed): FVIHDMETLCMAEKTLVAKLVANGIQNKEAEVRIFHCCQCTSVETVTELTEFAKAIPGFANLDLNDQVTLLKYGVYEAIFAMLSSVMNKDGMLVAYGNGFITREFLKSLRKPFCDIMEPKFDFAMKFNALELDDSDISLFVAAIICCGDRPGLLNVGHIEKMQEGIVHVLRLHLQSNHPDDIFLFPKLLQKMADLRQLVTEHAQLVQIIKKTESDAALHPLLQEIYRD
Experimental: Ligand binding domain of hPPARα was fused to DNA binding domain of Yeast transcription factor GAL4 in eucaryotic expression vector. Using superfect (Qiagen, Germany) as transfecting reagent HEK-293 cells were transfected with this plasmid and a reporter plasmid harboring the luciferase gene driven by a GALA specific promoter. Compound was added at different concentrations after 42 hrs of transfection and incubated overnight. Luciferase activity as a function of compound binding/activation capacity of PPARα was measured using Packard Luclite kit (Packard, USA) in Top Count (Ivan Sadowski, Brendan Bell, Peter Broag and Melvyn Hollis. Gene. 1992. 118: 137-141; Superfect Transfection Reagent Handbook. February, 1997. Qiagen, Germany).

[1] = test system: hypercholesterolemic Sprague Dawley rats; assay: Cholesterol lowering activity in hypercholesterolemic rat models; format: in vivo; conditions: for LDL↓ (%): LDL calculated; for VLDL↓ (%): VLDL calculated
Experimental: Male Sprague Dawley rats (NIN stock) were bred in DRF animal house. Animals were maintained under 12 hour light and dark cycle at 25±1° C. Rats of 180-200 gram body weight range were used for the experiment. Animals were made hypercholesterolemic by feeding 2% cholesterol and 1% sodium cholate mixed with standard laboratory chow [National Institute of Nutrition (NIN), Hyderabad, India] for 6 days. Throughout the experimental period the animals were maintained on the same diet (Petit, D., Bonnefis, M. T., Rey, C and Infante, R. Effects of ciprofibrate on liver lipids and lipoprotein synthesis in normo- and hyperlipidemic rats. Atherosclerosis. 1988. 74: 215-225).
The test compounds were administered orally at a dose 0.1 to 30 mg/kg/day for 3 days. Control group was treated with vehicle alone (0.25% Carboxymethylcellulose; dose 10 ml/kg).
The blood samples were collected in fed state 1 hour after drug administration on 0 and 3 day of compound treatment. The blood was collected from the retro-orbital sinus through heparinised capillary in EDTA containing tubes. After centrifugation, plasma sample was separated for total cholesterol, HDL and triglyceride estimations. Measurement of plasma triglyceride, total cholesterol and HDL were done using commercial kits (Dr. Reddy's Laboratory, Diagnostic Division, India). LDL and VLDL cholesterol were calculated from the data obtained for total cholesterol, HDL and triglyceride. The reduction of various parameters examined are calculated according to the formula.
(§1) 1. Percent reduction in Blood sugar/triglycerides/total cholesterol were calculated according to the formula: [formula]
2. LDL and VLDL cholesterol levels were calculated according to the formula: [formula]
VLDL cholesterol in mg/dl=[Total cholesterol−HDL cholesterol−LDL cholesterol] mg/dl

C57BL/KsJ-db/db mice = assay: Efficacy in genetic models: blood sugar and triglyceride lowering in db/db mice; format: in vivo; conditions: 3 mg/kg oral gavage daily for 6 days
Description: Mutation in colonies of laboratory animals and different sensitivities to dietary regimens have made the development of animal models with non-insulin dependent diabetes and hyperlipidemia associated with obesity and insulin resistance possible. Genetic models such as db/db and ob/ob (Diabetes, (1982) 31(1):1-6) mice and zucker fa/fa rats have been developed by the various laboratories for understanding the pathophysiology of disease and testing the efficacy of new antidiabetic compounds (Diabetes, (1983) 32:830-838; Annu. Rep. Sankyo Res. Lab. (1994). 46:1-57). The homozygous animals, C57 BL/KsJ-db/db mice developed by Jackson Laboratory, US, are obese, hyperglycemic, hyperinsulinemic and insulin resistant (J. Clin. Invest., (1990) 85:962-967), whereas heterozygous are lean and normoglycemic. In db/db model, mouse progressively develops insulinopenia with age, a feature commonly observed in late stages of human type II diabetes when blood sugar levels are insufficiently controlled. The state of pancreas and its course vary according to the models. Since this model resembles that of type II diabetes mellitus, the compounds of the present invention were tested for blood sugar and triglycerides lowering activities.
Male C57BL/KsJ-db/db mice of 8 to 14 weeks age, having body weight range of 35 to 60 grams, bred at Dr. Reddy's Research Foundation (DRF) animal house, were used in the experiment. The mice were provided with standard feed (National Institute of Nutrition (NIN), Hyderabad, India) and acidified water, ad libitum. The animals having more than 350 mg/dl blood sugar were used for testing. The number of animals in each group was 4.
Test compounds were suspended on 0.25% carboxymethyl cellulose and administered to test group at a dose of 0.001 mg to 30 mg/kg through oral gavage daily for 6 days. The control group received vehicle (dose 10 ml/kg). On 6th day the blood samples were collected one hour after administration of test compounds/vehicle for assessing the biological activity.
The random blood sugar and triglyceride levels were measured by collecting blood (100 μl) through orbital sinus, using heparinised capillary in tubes containing EDTA which was centrifuged to obtain plasma. The plasma glucose and triglyceride levels were measured spectrometrically, by glucose oxidase and glycerol-3-PO4 oxidase/peroxidase enzyme (Dr. Reddy's Lab. Diagnostic Division Kits, Hyderabad, India) methods respectively.
The blood sugar and triglycerides lowering activities of the test compound was calculated according to the formula described below.
as §1

[2] = test system: Swiss albino mice and Guinea pigs; assay: Plasma triglyceride and total cholesterol lowering activity in Swiss albino mice and Guinea pigs; format: in vivo; conditions: 3 mg/kg orally for 6 days; species of the table not stated (Swiss albino mice or Guinea pigs)
Experimental: Male Swiss albino mice (SAM) and male Guinea pigs were obtained from NIN and housed in DRF animal house. All these animals were maintained under 12 hour light and dark cycle at 25±1° C. Animals were given standard laboratory chow (NIN, Hyderabad, India) and water, ad libitum. SAM of 20-25 g body weight range and Guinea pigs of 500-700 g body weight range were used (Oliver, P., Plancke, M. O., Marzin, D., Clavey, V., Sauzieres, J and Fruchart, J. C. Effects of fenofibrate, gemfibrozil and nicotinic acid on plasma lipoprotein levels in normal and hyperlipidemic mice. Atherosclerosis. 1988. 70:107-114).
The test compounds were administered orally to Swiss albino mice at 0.3 to 30 mg/kg/day dose for 6 days. Control mice were treated with vehicle (0.25% Carboxymethylcellulose; dose 10 ml/kg). The test compounds were administered orally to Guinea pigs at 0.3 to 30 mg/kg/day dose for 6 days. Control animals were treated with vehicle (0.25% Carboxymethylcellulose; dose 5 ml/kg).
The blood samples were collected in fed state 1 hour after drug administration on 0 and 6 day of treatment. The blood was collected from the retro-orbital sinus through heparinised capillary in EDTA containing tubes. After centrifugation, plasma sample was separated for triglyceride and total cholesterol (Wieland, O. Methods of Enzymatic analysis. Bergermeyer, H. O., Ed., 1963. 211-214; Trinder, P. Ann. Clin. Biochem. 1969. 6:24-27). Measurement of plasma triglyceride, total cholesterol and HDL were done using commercial kits (Dr. Reddy's Diagnostic Division, Hyderabad, India).
as §1

In the case of `CCOC(Cc1ccc(OCCN2COc3ccccc3C2=O)cc1)C(=O)O` (racemic) [Example 3, (±) 2-Ethoxy-3-[4-[2-[4-oxo-3,4-dihydro-1,3-benzoxazin-3-yl]ethoxy]phenyl]propanoic Acid], the PPARγ (hPPARγ1) is reported as 11, the PPARα (hPPARα) is reported as 7 and the “HDL↑ (%)” value ([1]; 0.3 mg/kg orally for 3 days) is reported as 110%. The “Total Cholesterol (%)↓” value ([1]; 0.3 mg/kg orally for 3 days) was 64%, the “Triglyceride (%)↓” value ([1]; 0.3 mg/kg orally for 3 days) was 62% and the “LDL↓ (%)” value ([1]; 0.3 mg/kg orally for 3 days) was 74%. The “VLDL↓ (%)” value ([1]; 0.3 mg/kg orally for 3 days) was 50%.
In the case of `CCOC(Cc1ccc(OCCN2COc3ccccc3C2=O)cc1)C(=O)[O-].[Na+]` (racemic) [Example 4, (±)-Sodium 2-ethoxy-3-[4-[2-[4-oxo-3,4-dihydro-1,3-benzoxazin-3-yl]ethoxy]phenyl]propanoate], the “HDL↑ (%)” value ([1]; 3 mg/kg orally for 3 days) is reported as 256%, the “Total Cholesterol (%)↓” value ([1]; 3 mg/kg orally for 3 days) is reported as 64% and the “Triglyceride (%)↓” value ([1]; 3 mg/kg orally for 3 days) is reported as 61%. For the same molecule, the “LDL↓ (%)” value ([1]; 3 mg/kg orally for 3 days) was 76% and the “VLDL↓ (%)” value ([1]; 3 mg/kg orally for 3 days) was 67%.
For `CCOC(Cc1ccc(OCC2NC(=O)c3ccccc3O2)cc1)C(=O)O` (racemic) [Example 14, (±)-2-Ethoxy-3-[4-[[4-oxo-3,4-dihydro 1,3-benzoxazin-2-yl]methoxy]phenyl]propanoic Acid], the “Reduction in Blood Glucose Level (%)” value (C57BL/KsJ-db/db mice) was 55% and the “Triglyceride Lowering (%)” value (C57BL/KsJ-db/db mice) was 46%.
In the case of `CCOC(Cc1ccc(OCC2NC(=O)c3ccccc3N2)cc1)C(=O)O` (racemic) [Example 16, (±)-2-Ethoxy-3-[4-[[4-oxo-1,2,3,4-tetrahydro-2-quinazolinyl]methoxy]phenyl]propanoic Acid], the “Reduction in Blood Glucose Level (%)” value (C57BL/KsJ-db/db mice) is reported as 18% and the “Triglyceride Lowering (%)” value (C57BL/KsJ-db/db mice) is reported as 13%.
In the case of `CCOC(Cc1ccc(OCC2NC(=O)c3cc(Cl)ccc3N2)cc1)C(=O)O` (racemic) [Example 18, (±)-2-Ethoxy-3-[4-[[6-chloro-4-oxo-1,2,3,4-tetrahydro-2-quinazolinyl]methoxy]phenyl]propanoic Acid], the “Triglyceride (%)↓” value [2] is reported as 63%.
For `CCOC(Cc1ccc(OCC2Nc3ccccc3C(=O)N2C)cc1)C(=O)OC` (racemic) [Example 19, (±)-Methyl 2-ethoxy-3-[4-[[3-methyl-4-oxo-1,2,3,4-tetrahydro-2-quinazolinyl]methoxy]phenyl]propanoate], the “Reduction in Blood Glucose Level (%)” value (C57BL/KsJ-db/db mice) was 31%, the “Triglyceride Lowering (%)” value (C57BL/KsJ-db/db mice) was 62% and the “Triglyceride (%)↓” value [2] was 51%.
With `CCOC(Cc1ccc(OCCN2COc3ccccc3C2=O)cc1)C(=O)NC(CO)c1ccccc1` (stereo not shown) [Example 7] the “Triglyceride (%)↓” value [2] was 61%.
`CCOC(Cc1ccc(OCCN2COc3ccccc3C2=O)cc1)C(=O)NC(CO)c1ccccc1` [Example 7a, [2R, N(1S)] 2-Ethoxy-3-[4-[2-[4-oxo-3,4-dihydro-1,3-benzoxazin-3-yl]ethoxy]phenyl]-N-(2-hydroxy-1-phenylethyl)propanamide] gave a melting point of 64 to 68 °C.
